Measurements as given in patent US20230330234A1, “HYPERBRANCHED POLYESTER POLYOL DERIVATIVE AS DRUG SOLUBILIZER” (FREIE UNIVERSITÄT BERLIN, priority 2020, published 2023).
Values after ≈ are worked out from the molar mass of the structure shown. Read-outs that look alike come from different tables or passages of the source.

Columns and labels:
physchem = conditions: aqueous with cosolvent or surfactant or cyclodextrin, thermodynamic from solid

SMILES | solubility at 18 h (physchem) [µg/mL] | solubility (Solubility in water; Solubility in water) [µg/mL] | Solubility in water (Solubility in water) [µg/mL] | solubility (Solubility in water) [µg/mL]
CCN1[C@@H](C(=O)NC23CCC(C(=O)O)(CC2)CC3)[C@H](c2cccc(Cl)c2F)[C@]2(C(=O)Nc3cc(Cl)ccc32)C12CCCCC2 [APG-115] | > 300 | 2 (≈ 3.11 µM) |  | 
CN(C)C/C=C/C(=O)Nc1cc2c(Nc3ccc(F)c(Cl)c3)ncnc2cc1O[C@H]1CCOC1 [Afatinib] | > 300 | 10 (≈ 20.6 µM) |  | 
Cc1nc(NC(=O)N2CCC[C@H]2C(N)=O)sc1-c1ccnc(C(C)(C)C(F)(F)F)c1 [Alpelisib] | > 300 | 5 (≈ 11.3 µM) |  | 
CNC(=O)c1ccccc1Sc1ccc2c(/C=C/c3ccccn3)n[nH]c2c1 [Axitinib] | > 300 |  | 0.5 (≈ 1.29 µM) | 
CCN(CCCOc1ccc2c(Nc3cc(CC(=O)Nc4cccc(F)c4)n[nH]3)ncnc2c1)CCOP(=O)(O)O [Barasertib] | > 300 | 50 (≈ 85.1 µM) |  | 
O=C(/C=C/c1cccc(S(=O)(=O)Nc2ccccc2)c1)NO [Belinostat] | > 300 | 30 (≈ 94.2 µM) |  | 
Cn1cnc2c(F)c(Nc3ccc(Br)cc3F)c(C(=O)NOCCO)cc21 [Binimetinib] | > 300 | 50 (≈ 113 µM) |  | 
CC(C)C[C@H](NC(=O)[C@H](Cc1ccccc1)NC(=O)c1cnccn1)B(O)O [Bortezomib] | > 300 | 50 (≈ 130 µM) |  | 
COc1cc(Nc2c(C#N)cnc3cc(OCCCN4CCN(C)CC4)c(OC)cc23)c(Cl)cc1Cl [Bosutinib] | > 300 | 10 (≈ 18.9 µM) |  | 
COc1cc2nccc(Oc3ccc(NC(=O)C4(C(=O)Nc5ccc(F)cc5)CC4)cc3)c2cc1OC [Cabozantinib] | > 300 | 2 (≈ 3.99 µM) |  | 
O=C(c1ccc(F)c(F)c1Nc1ccc(I)cc1F)N1CC(O)([C@@H]2CCCCN2)C1 [Cobimetinib] | > 300 | 40 (≈ 75.3 µM) |  | 
COc1cc(/C=C/C(=O)CC(=O)/C=C/c2ccc(O)c(OC)c2)ccc1O [Curcumin] | < 100 |  | 6 (≈ 16.3 µM) | 
COc1cc2ncnc(Nc3ccc(F)c(Cl)c3)c2cc1NC(=O)/C=C/CN1CCCCC1 [Dacomitinib] | > 300 | 9 (≈ 19.2 µM) |  | 
Cc1nc(Nc2ncc(C(=O)Nc3c(C)cccc3Cl)s2)cc(N2CCN(CCO)CC2)n1 [Dasatinib] | > 300 |  |  | 
C[C@@H]1C[C@H]2[C@@H]3CCC4=CC(=O)C=C[C@]4(C)[C@@]3(F)[C@@H](O)C[C@]2(C)[C@@]1(O)C(=O)CO [Dexamethasone] | < 100 |  |  | 
COC(=O)N[C@@H](C)CNc1nccc(-c2cn(C(C)C)nc2-c2cc(Cl)cc(NS(C)(=O)=O)c2F)n1 [Encorafenib] | > 300 | 10 (≈ 18.5 µM) |  | 
Nc1ccccc1NC(=O)c1ccc(CNC(=O)OCc2cccnc2)cc1 [Entinostat] | > 300 | 5 (≈ 13.3 µM) |  | 
CN1CCN(c2ccc(C(=O)Nc3n[nH]c4ccc(Cc5cc(F)cc(F)c5)cc34)c(NC3CCOCC3)c2)CC1 [Entrectinib] | > 300 | 9 (≈ 16.1 µM) |  | 
C#Cc1cccc(Nc2ncnc3cc(OCCOC)c(OCCOC)cc23)c1 [Erlotinib] | > 300 | 10 (≈ 25.4 µM) |  | 
COc1ccc(-c2nc(N3CCOCC3)c3sc(CN(C)c4ncc(C(=O)NO)cn4)cc3n2)cn1 [Fimepinostat] | > 300 | 2 (≈ 3.93 µM) |  | 
CCCc1cc(C)[nH]c(=O)c1CNC(=O)c1cc(-c2ccnc(N3CCN(C)CC3)c2)cc2c1cnn2C(C)C [GSK343] | > 300 | 1 (≈ 1.85 µM) |  | 
Cn1ncc(Cl)c1-c1cc(C(=O)N[C@H](CN)Cc2cccc(F)c2)sc1Cl [GSK2110183] | > 300 | 7 (≈ 16.4 µM) |  | 
CN(C)C1CCN(C(=O)c2ccc(NC(=O)Nc3ccc(-c4nc(N5CCOCC5)nc(N5CCOCC5)n4)cc3)cc2)CC1 [Gedatolisib] | > 300 | 40 (≈ 65 µM) |  | 
CN1CC[C@@H](NC(=O)Nc2ccc(C#N)cc2)C[C@@H]1c1nc2ccccc2[nH]1 [Glasdegib] | > 300 | 50 (≈ 134 µM) |  | 
C=CC(=O)N1CCC[C@@H](n2nc(-c3ccc(Oc4ccccc4)cc3)c3c(N)ncnc32)C1 [Ibrutinib] | > 300 | 20 (≈ 45.4 µM) |  | 
CC(C)Cc1ccc(C(C)C(=O)O)cc1 (centres unmarked) [Ibuprofen] | < 100 |  |  | 

SMILES | solubility at 18 h (physchem) [µg/mL] | solubility (Solubility in water; Solubility in water) [µg/mL] | Solubility in water (Solubility in water) [µg/mL] | solubility (Solubility in water) [µg/mL]
COc1cc(C(=O)O)ccc1NC(=O)[C@@H]1N[C@@H](CC(C)(C)C)[C@](C#N)(c2ccc(Cl)cc2F)[C@H]1c1cccc(Cl)c1F [Idasanutlin] | > 300 | 1 (≈ 1.62 µM) |  | 
CC(C)NC[C@@H](C(=O)N1CCN(c2ncnc3c2[C@H](C)C[C@H]3O)CC1)c1ccc(Cl)cc1 [Ipatasertib] | > 300 | 50 (≈ 109 µM) |  | 
CO[C@@H](C)Cn1c(=O)n(C)c2cnc3ccc(-c4cncc(C(C)(C)O)c4)cc3c21 [LY3023414] | > 300 | 80 (≈ 197 µM) |  | 
C[C@H]1Oc2cc(cnc2N)-c2c(nn(C)c2C#N)CN(C)C(=O)c2ccc(F)cc21 [Lorlatinib] | > 300 | 100 (≈ 246 µM) |  | 
Nc1ncccc1-c1nc2ccc(-c3ccccc3)nc2n1-c1ccc(C2(N)CCC2)cc1 [Miransertib] | > 300 |  |  | 60 (≈ 139 µM)
Nc1ccccc1NC(=O)c1ccc(CNc2nccc(-c3cccnc3)n2)cc1 [Mocetinostat] | > 300 | 8 (≈ 20.2 µM) |  | 
COc1ccc([C@@H](O)c2cc(-c3ncnc4cc(N5CCOCC5)ccc34)c(F)cc2Cl)nn1 [Nedisertib] | > 300 | 80 (≈ 166 µM) |  | 
CCOc1cc2ncc(C#N)c(Nc3ccc(OCc4ccccn4)c(Cl)c3)c2cc1NC(=O)/C=C/CN(C)C [Neratinib] | > 300 | 6 (≈ 10.8 µM) |  | 
Cc1cn(-c2cc(NC(=O)c3ccc(C)c(Nc4nccc(-c5cccnc5)n4)c3)cc(C(F)(F)F)c2)cn1 [Nilotinib] | > 300 | 2 (≈ 3.78 µM) |  | 
NC(=O)c1cccc2cn(-c3ccc([C@@H]4CCCNC4)cc3)nc12 [Niraparib] | > 300 | 10 (≈ 31.2 µM) |  | 
O=C(c1cc(Cc2n[nH]c(=O)c3ccccc23)ccc1F)N1CCN(C(=O)C2CC2)CC1 [Olaparib] | > 300 | 120 (≈ 276 µM) |  | 
C=CC(=O)Nc1cc(Nc2nccc(-c3cn(C)c4ccccc34)n2)c(OC)cc1N(C)CCN(C)C [Osimertinib] | > 300 | 20 (≈ 40 µM) |  | 
Cc1ccc(Nc2nccc(N(C)c3ccc4c(C)n(C)nc4c3)n2)cc1S(N)(=O)=O [Pazopanib] | > 300 |  | 40 (≈ 91.4 µM) | 
Cc1ccc(C(=O)Nc2ccc(CN3CCN(C)CC3)c(C(F)(F)F)c2)cc1C#Cc1cnc2cccnn12 [Ponatinib] | > 300 | 2 (≈ 3.76 µM) |  | 
Cn1nccc1Nc1nccc(-c2ccn([C@H](CO)c3ccc(Cl)c(F)c3)c(=O)c2)n1 [Ravoxertinib] | > 300 | 4 (≈ 9.07 µM) |  | 
CNC(=O)c1cc(Oc2ccc(NC(=O)Nc3ccc(Cl)c(C(F)(F)F)c3)c(F)c2)ccn1 [Regorafenib] | > 300 |  | 1 (≈ 2.07 µM) | 
CNCc1ccc(-c2[nH]c3cc(F)cc4c3c2CCNC4=O)cc1 [Rucaparib] | > 300 | 10 (≈ 30.9 µM) |  | 
N#CC[C@H](C1CCCC1)n1cc(-c2ncnc3[nH]ccc23)cn1 [Ruxolitinib] | > 300 |  |  | 
CC(C)(C)C[C@@H]1N[C@@H](C(=O)N[C@H]2CC[C@H](O)CC2)[C@H](c2cccc(Cl)c2F)[C@]12C(=O)Nc1cc(Cl)ccc12 [SAR405838] | > 300 | 2 (≈ 3.56 µM) |  | 
Cn1cnc2c(F)c(Nc3ccc(Br)cc3Cl)c(C(=O)NOCCO)cc21 [Selumetinib] | > 300 | 40 (≈ 87.4 µM) |  | 
COc1ncc(-c2nc3c(n2C(C)C)[C@H](c2ccc(Cl)cc2)N(c2cc(Cl)cn(C)c2=O)C3=O)c(OC)n1 [Siremadlin] | > 300 | 1 (≈ 1.8 µM) |  | 
Cn1ncnc1[C@H]1c2n[nH]c(=O)c3cc(F)cc(c23)N[C@@H]1c1ccc(F)cc1 [Talazoparib] | > 300 | 100 (≈ 263 µM) |  | 
CC(C)Nc1cc(-c2c[nH]c(C(=O)N[C@H](CO)c3cccc(Cl)c3)c2)c(Cl)cn1 [Ulixertinib] | > 300 | 4 (≈ 9.23 µM) |  | 
Cn1ncc(Cl)c1-c1cc(C(=O)N[C@H](CN)Cc2ccc(F)c(F)c2)oc1Cl [Uprosertib] | > 300 | 30 (≈ 69.9 µM) |  | 
CCCS(=O)(=O)Nc1ccc(F)c(C(=O)c2c[nH]c3ncc(-c4ccc(Cl)cc4)cc23)c1F [Vemurafenib] | > 300 | 0.3 (≈ 0.612 µM) |  | 
